Experimental data from US5736548A, “6-aryl pyrazolo[3,4-D] pyrimidin-4-ones and compositions and method of use thereof” (Sanofi, priority 1997, dated 1998).
Values joined by “and” are separate entries in the source; they are usually repeats but may differ in a detail not shown here. Equal entries are not always repeated.

Key:
[1] = test system: Spontaneously hypertensive rats (SHR); experiment: Antihypertensive activity in conscious spontaneously hypertensive rats (mean arterial pressure); format: in vivo; settings: Rattus norvegicus, 5 min, po
[2] = test system: Spontaneously hypertensive rats (SHR); experiment: as above; format: in vivo; settings: Rattus norvegicus, 5 min, SHR iv
Protocol: After a 2 day recovery from surgery, three baseline blood pressure measurements were made at 5 min intervals in conscious SHR. Compounds to be tested or vehicle were then administered intravenously in a dose-dependent manner (0.3-10 mg base/kg) while arterial pressure was recorded continuously on a polygraph. The mean arterial pressure response was measured 5 minutes after the administration of each dose of the test compound and the next dose given in a cumulative dose fashion. The response to each dose of the test compound was calculated as the difference from the mean of the three baseline measurements.

[3] = molecular target: cGMP-PDE V (Homo sapiens, UniProt O76074); experiment: biochemical; set-up: species or system various animal species and man; settings: values separated by / and marked * are separate experimental runs
Protocol: The cGMP-PDE and other PDE isozymes were isolated from cardiovascular tissues (heart and aorta) of various animal species and man by anion-exchange and affinity chromatography as described by Silver et al., Sec. Messeng. Phos. 13:13-25, 1991; PDE activity, in the presence and absence of test compounds was determined essentially as described by Thompson et al., Adv. Cyclic Nucleotide Res. 10:69-92. To determine the potency and selectivity of compounds as PDE inhibitors, compounds are screened for their effect on cyclic nucleotide hydrolysis at 10 μM. […] The IC50 values are calculated from concentration-response curves as described by Tallarida and Murray, Manual of Pharmacologic Calculations with Computer Programs, Procedure 8, Graded Dose-response, pp. 14-19, Springer-Verlag, New York, 1981.

[4] = test system: nitroglycerin tolerant spontaneously hypertensive rats; experiment: Reversal of nitroglycerin-induced tolerance in spontaneously hypertensive rats; format: in vivo; settings: intravenously 5-10 minutes prior to nitroglycerin challenge
Protocol: Spontaneously hypertensive rats (17-25 weeks of age) were made nitroglycerin tolerant by repeated administration of high doses of nitroglycerin (100 mg/kg, s.c., 3 times/day for 3 consecutive days). To confirm tolerance challenge doses of nitroglycerin were administered intravenously at doses ranging from 1-300 μg/kg and the maximum change in mean arterial pressure (MAP) for each dose was recorded. Groups of tolerant rats were pretreated with the compounds of the invention (tolerant pretreated group) or with vehicle (0.05N NaOH) (tolerant vehicle pretreated group) intravenously 5-10 minutes prior to administration of challenge doses of nitroglycerin. The administration of challenge doses of nitroglycerin to non-tolerant rats (the non-tolerant group) caused a dose-dependent decrease in MAP of between 10 to 40 mm Hg. […] The area under the dose-MAP curve was calculated for the non-tolerant group and for the tolerant vehicle pretreated group and the tolerant pretreated group. The percent reversal of nitrate-inducedtolerance was calculated as follows:
Percent Reversal=(AUCtol -pretreated-AUCtol-veh)/(AUCnontol
AUCnontol =the area under the dose-MAP curve for the non-tolerant group.
AUCtol-veh =the area under the dose-MAP curve for the tolerant vehicle pretreated group.
AUCtol-pretreated =the area under the dose-MAP curve for the tolerant pretreated group.
The following table summarizes the results obtained from the testing of representative compounds of the invention.

Row | SMILES | change in vivo at 10 mg/kg ([1]; 10 mg/kg) | ED25 [2] | change in vivo at 1 mg/kg ([2]; 5 minutes after dose) | change in vivo at 3 mg/kg ([2]; 5 minutes after dose) | change in vivo at 10 mg/kg ([2]; 5 minutes after dose) | IC50 [3] | Percent (%) Reversal of Nitroglycerin-induced Tolerance ([4]; 1.0 mg/kg) | change in vivo at 30 mg/kg [1] | Percent (%) Reversal of Nitroglycerin-induced Tolerance ([4]; 0.3 mg/kg) | change in vivo at 0.3 mg/kg ([2]; 0.3 mg/kg, 5 minutes after dose)
1 | CCc1nn(C2CCCC2)c2nc(-c3ccc(OCCN4CCOCC4)c(OCCN4CCOCC4)c3)[nH]c(=O)c12 [25 (b), 1-cyclopentyl-3-ethyl-6-[3,4-[2-(4-morpholinyl)ethoxy]phenyl]pyrazolo[3,4-d]pyrimidin-4-one] | -18% | 4.5 mg/kg | -18% | -27% | -38% | 14 nM and 51 nM | – | – | – | –
2 | CCCOc1ccccc1-c1nc2n(C3CCCC3)[nH]c(CC)c-2c(=O)n1 [Example 6, 1-cyclopentyl-3-ethyl-6-(2-propoxyphenyl)-pyrazolo[3,4-d]pyrimidin-4-one] | – | – | – | – | -1% | 1.6 nM | 49% | – | – | –
3 | CCc1[nH]n(C2CCCC2)c2nc(-c3cccc(OCCN4CCOCC4)c3)nc(=O)c1-2 [13 (b), 1-cyclopentyl-3-ethyl-6-[3-[2-(4-morpholinyl)ethoxy]phenyl]-pyrazolo[3,4-d]pyrimidin-4-one] | – | 9.5 mg/kg | -14% | -19% | – | 107 nM | – | -58% | 58% | -11%
4 | CCc1nn(C2CCCC2)c2nc(-c3ccc(-n4ccnc4)cc3)[nH]c(=O)c12 [8 (a), 1-cyclopentyl-3-ethyl-6-[4-(1-imidazolyl)phenyl]-pyrazolo-[3,4-d] pyrimidin-4-one 1/2 hydrate] | – | 5.7 mg/kg | – | -20% | -35% | 410 nM and 430 nM | – | -81% | 5% | –
